Tests used:
293 = settings: human
Description: (§1) Cytotoxicity of COMPOUND 3 (an analog of COMPOUND 1, FIG. 1A) and other anticancer therapeutics were measured using cancer cells with various origins.

MCF7 = settings: human
Description: as §1

RPM17951 = settings: human
Description: as §1

PC3 = settings: human
Description: as §1

A549 = settings: human
Description: as §1

HL60 = settings: human
Description: as §1

SW480 cells = test: Soft agar colony formation assay with SW480 cells; assay type: cell-based, human; settings: Homo sapiens, 192 h, 5000 cells/well, colonies counted after 8 days
CBP (1-111) = target: T1, CBP (1-111) (Mus musculus, UniProt P45481); test: Pull-down of CBP deletion constructs on COMPOUND 2 coated beads, competition with excess COMPOUND 1; assay type: binding; settings: E. coli expressed 6x-His protein, 100 μM COMPOUND 2
T1 construct: 6xHis (C); HSV tag (C); expressed in transfected cells
T1 sequence (P45481 1-110): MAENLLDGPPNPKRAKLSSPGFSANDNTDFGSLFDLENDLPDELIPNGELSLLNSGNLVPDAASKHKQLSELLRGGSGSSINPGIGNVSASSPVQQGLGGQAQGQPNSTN

CBP = target: T2, CBP (Homo sapiens, UniProt Q92793); test: COMPOUND 2 streptavidin-agarose affinity pull-down from SW480 nuclear extracts; assay type: binding; settings: SW480 nuclear extract, immunoblotting with anti-CBP
T2 construct: endogenous in cells; host or cells: SW480 nuclear extract
T2 sequence (Q92793 whole entry): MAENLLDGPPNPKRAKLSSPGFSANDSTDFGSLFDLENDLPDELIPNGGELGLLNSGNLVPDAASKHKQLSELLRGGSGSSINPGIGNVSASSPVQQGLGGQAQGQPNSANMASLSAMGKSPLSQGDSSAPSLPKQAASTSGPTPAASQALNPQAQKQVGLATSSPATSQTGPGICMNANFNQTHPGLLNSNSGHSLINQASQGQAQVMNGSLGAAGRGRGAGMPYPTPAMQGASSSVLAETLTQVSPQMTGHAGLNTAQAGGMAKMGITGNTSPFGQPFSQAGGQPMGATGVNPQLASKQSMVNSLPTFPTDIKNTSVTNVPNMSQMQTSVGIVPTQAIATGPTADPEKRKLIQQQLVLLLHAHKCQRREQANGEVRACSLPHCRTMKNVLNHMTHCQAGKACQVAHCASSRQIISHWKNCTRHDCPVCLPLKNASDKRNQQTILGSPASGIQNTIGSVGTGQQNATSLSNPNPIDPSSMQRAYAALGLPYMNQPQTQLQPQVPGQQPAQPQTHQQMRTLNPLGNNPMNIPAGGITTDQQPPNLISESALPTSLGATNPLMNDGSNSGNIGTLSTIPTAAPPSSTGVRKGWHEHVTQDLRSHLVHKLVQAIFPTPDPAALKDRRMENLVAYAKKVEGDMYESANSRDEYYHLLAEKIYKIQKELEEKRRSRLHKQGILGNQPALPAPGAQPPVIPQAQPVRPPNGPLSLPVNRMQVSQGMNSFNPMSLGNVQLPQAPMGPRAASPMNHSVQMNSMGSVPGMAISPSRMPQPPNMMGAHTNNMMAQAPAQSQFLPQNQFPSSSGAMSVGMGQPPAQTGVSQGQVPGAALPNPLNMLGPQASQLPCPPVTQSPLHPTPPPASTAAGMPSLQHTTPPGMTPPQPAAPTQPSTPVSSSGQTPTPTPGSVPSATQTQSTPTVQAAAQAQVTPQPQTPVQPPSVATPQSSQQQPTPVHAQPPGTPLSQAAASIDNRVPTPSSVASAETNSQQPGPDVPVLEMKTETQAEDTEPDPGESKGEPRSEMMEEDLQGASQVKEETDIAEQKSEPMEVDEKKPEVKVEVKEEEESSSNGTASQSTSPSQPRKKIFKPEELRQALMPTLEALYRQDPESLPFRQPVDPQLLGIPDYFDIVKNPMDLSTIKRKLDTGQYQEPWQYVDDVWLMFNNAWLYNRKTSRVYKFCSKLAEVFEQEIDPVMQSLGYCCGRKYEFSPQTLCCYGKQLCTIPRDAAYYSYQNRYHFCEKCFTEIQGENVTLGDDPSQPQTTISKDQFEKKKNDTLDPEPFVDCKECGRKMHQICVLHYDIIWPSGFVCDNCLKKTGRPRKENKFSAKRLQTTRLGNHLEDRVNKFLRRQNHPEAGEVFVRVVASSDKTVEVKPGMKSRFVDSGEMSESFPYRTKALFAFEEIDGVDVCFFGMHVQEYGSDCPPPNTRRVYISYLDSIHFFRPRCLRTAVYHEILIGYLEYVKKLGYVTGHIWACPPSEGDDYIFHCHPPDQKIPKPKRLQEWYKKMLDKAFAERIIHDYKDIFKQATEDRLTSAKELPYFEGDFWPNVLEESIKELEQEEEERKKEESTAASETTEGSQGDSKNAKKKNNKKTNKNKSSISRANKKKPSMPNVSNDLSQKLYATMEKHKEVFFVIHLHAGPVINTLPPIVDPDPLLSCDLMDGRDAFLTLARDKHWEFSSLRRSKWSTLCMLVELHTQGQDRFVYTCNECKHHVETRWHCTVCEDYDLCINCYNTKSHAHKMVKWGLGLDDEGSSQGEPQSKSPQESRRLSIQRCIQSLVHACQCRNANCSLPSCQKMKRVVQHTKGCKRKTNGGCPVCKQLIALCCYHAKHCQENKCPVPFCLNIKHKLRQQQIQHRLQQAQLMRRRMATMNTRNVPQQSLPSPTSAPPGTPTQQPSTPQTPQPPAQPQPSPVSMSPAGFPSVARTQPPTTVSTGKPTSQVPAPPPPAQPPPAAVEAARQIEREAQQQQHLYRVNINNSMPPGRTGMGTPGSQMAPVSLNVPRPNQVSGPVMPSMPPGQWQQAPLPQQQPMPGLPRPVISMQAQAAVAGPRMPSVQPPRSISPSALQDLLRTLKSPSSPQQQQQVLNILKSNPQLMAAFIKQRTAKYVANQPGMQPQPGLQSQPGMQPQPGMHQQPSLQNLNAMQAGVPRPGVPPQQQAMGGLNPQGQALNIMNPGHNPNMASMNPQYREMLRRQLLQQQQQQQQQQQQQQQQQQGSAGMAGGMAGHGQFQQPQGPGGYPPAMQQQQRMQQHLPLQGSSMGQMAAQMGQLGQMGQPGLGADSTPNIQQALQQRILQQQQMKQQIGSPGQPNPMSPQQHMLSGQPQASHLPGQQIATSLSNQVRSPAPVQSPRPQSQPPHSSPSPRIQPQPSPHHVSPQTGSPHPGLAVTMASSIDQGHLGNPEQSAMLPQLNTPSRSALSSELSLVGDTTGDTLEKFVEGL
Description: FIG. 1. COMPOUND 1 inhibits β-catenin/TCF transcription. • A(i) and A(ii). Structures of COMPOUND 1, COMPOUND 2, COMPOUND 3, COMPOUND 4, and COMPOUND 5. • B(i) and B(ii). […] SW480 cells (10^5), (FIG. 1B(i)), were transfected with β-catenin/TCF luciferase construct. Cells were treated with COMPOUND 1 (1-64 μM). 24 hours post treatment lysates were prepared and subjected to dual luciferase assay. The data is represented in different form in FIG. 1B(ii). • C. COMPOUND 1 has no effect on NFAT reporter construct. Stably transfected Jurkat cells, right panel, with an NFAT reporter construct, were stimulated with PMA (10 ng/ml)/lonomycin (1 μg/ml), and treated with COMPOUND 1 (0.781-50 μM). 24 hours post treatment lysates were prepared and subjected to dual luciferase assay. All experiments were performed in duplicate and the values plotted as means +/−standard deviation. • D. CBP is the molecular target of COMPOUND 1. Nuclear extracts of SW480 cells were incubated with streptavidin-agarose beads coated with COMPOUND 2 (25 μM). Beads were washed 3 times and the eluted were subjected to gel electrophoresis and immunoblotting, with anti-CBP antibodies. […] The lysates were desalted using G-25 1 cc columns (Pharmacia) to remove the unbound ^14C-labeled-COMPOUND 1, and ^14C-labeled-COMPOUND 1 incorporation was measured. […]

p300 (1-111) = target: T3, p300 (1-111) (Homo sapiens, UniProt Q09472); test: Pull-down of p300 deletion constructs on COMPOUND 2 coated beads, competition with excess COMPOUND 1; assay type: binding; settings: E. coli expressed 6x-His protein, 100 μM COMPOUND 2
T3 construct: 6xHis (C); HSV tag (C); expressed in transfected cells
T3 sequence (Q09472 1-117): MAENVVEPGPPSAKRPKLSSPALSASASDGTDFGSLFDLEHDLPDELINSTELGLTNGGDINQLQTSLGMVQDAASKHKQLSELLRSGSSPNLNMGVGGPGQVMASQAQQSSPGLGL
Description: FIG. 2. The first 111 amino acids of CBP, but not p300, specifically bind COMPOUND 1. • A. Schematic representation of the wild-type and deletion constructs for CBP. • B. CBP (1-111) contains the minimal binding domain of COMPOUND 1. Expression levels of CBP deletion constructs in SW480 cells are shown (upper panel). 10 μg of total protein was subjected to gel electrophoresis and subjected to immunoblotting using anti-His antibodies. Whole cell lysates of SW480 cells expressing CBP deletion constructs were bound to streptavidin-agarose beads coated with 100 μM of COMPOUND 2. The bound fractions were subjected to gel electrophoresis and immunoblotting using anti-His antibodies (lower panel). Arrows point to constructs which remained bound to COMPOUND 2 coated beads. • C. […] CBP deletion constructs, CBP(1-111),CBP (1-211), and CBP (1-351) and p300 deletion constructs, p300 (1-111), p300 (1-211), and p300 (1-351) were transfected into SW480 cells. Whole cell lysates were incubated with streptavidin-agarose beads or streptavidin-agarose beads coated with 100 μM COMPOUND 2 (lower panel). The binding of CBP constructs (1-111,1-211, and 1-351) and p300 constructs (1-111,1-211, and 1-351) to the beads was challenged with excess COMPOUND 1 (150 μM). • D. CBP (1-111) binds to COMPOUND 1 in a phosphorylation independent manner. […]

Min mouse = test: Polyp number in Min mouse model; assay type: in vivo; settings: for Polyp Number (Mean + S.D.), Colon / Polyp Number (Mean + S.D.), Small intestine / Polyp Number (Mean + S.D.), Total / % Inhibition vs. VH: Min mouse; for % Inhibition vs. VH: total polyp number vs. vehicle
Description: COMPOUND 4, COMPOUND 5, or vehicle was administrated in wild type and Min mice. COMPOUND 4 is also an analog of COMPOUND 1 (FIG. 1A). The numbers of polyp formed in small intestine and colon of these mice after various treatments were measured (Table 6).

[1] = test system: nuclear β-catenin in SW480 cells; test: β-catenin immunofluorescence and western blot localization in SW480 cells; assay type: cell-based, human; settings: data not shown
Description: FIG. 4. COMPOUND 1 decreases nuclear β-catenin • A. β-catenin immunofluorescence microscopy. Log phase SW480 (left) and HCT116 (right) cells were fixed and stained with either anti-β-catenin red (upper panel, A) or anti-CBP (upper panel, B) green. The center panel represents the superimposed β-catenin and CBP in SW480 (left) and HCT116 (right) cells. […] 25 μg of total protein from the cell extracts of SW480 cells with or without 24 hr treatment of COMPOUND1 was used for detection of cytosolic and nuclear β-catenin.
Immunofluorescence was used to examine the localization of CBP and β-catenin in SW480 and HCT116 cells treated with COMPOUND 1 (25 μM) or control (0.5% DMSO). Cells at log phase were seeded and after 24 hours, the cells were treated with COMPOUND 1 or control. 24 hours post treatment, cells were fixed. The coverslips were incubated with antibodies raised against CBP (A-22) (Santa Cruz Biotechnology) and β-catenin (Transduction Laboratories), respectively. The slides were examined using a Nikon PCM 2000 Laser Scanning Confocal Microscope after the secondary antibodies conjugated to either FITC or TRITC (Jackson ImmunoResearch, Westgrove, Pa.) were applied.
The subcellular distribution of β-catenin and CBP was examined in order to determine whether the localization of either was affected by COMPOUND 1. […]

Q: `O=c1[nH]cc(F)c(=O)[nH]1` [5-FU, 5-fluorouracil] was tested. Which Cytotoxicity 293 did it give?
A: 2.015 µg/mL

Q: What about the Cytotoxicity (MCF7) of the same molecule?
A: 1.751 µg/mL

Q: And the Cytotoxicity (RPM17951)?
A: 0.920 µg/mL

Q: What about the Cytotoxicity (PC3) of the same molecule?
A: >10 µg/mL

Q: And the Cytotoxicity (A549)?
A: 1.007 µg/mL

Q: And the Cytotoxicity (HL60)?
A: 7.010 µg/mL

Q: What about the IC50 (SW480 cells) of the same molecule?
A: 1980 ± 170 nM

Q: For `COc1cccc2c1C(=O)c1c(O)c3c(c(O)c1C2=O)C[C@@](O)(C(=O)CO)C[C@@H]3O[C@H]1C[C@H](N)[C@H](O)[C@H](C)O1` [ADR, adriamycin], which Cytotoxicity 293 is on record?
A: <0.03 µg/mL

Q: What about the Cytotoxicity (MCF7) of the same molecule?
A: 1.424 µg/mL

Q: And the Cytotoxicity (RPM17951)?
A: 0.171 µg/mL

Q: What about the Cytotoxicity (PC3) of the same molecule?
A: 0.267 µg/mL

Q: What about the Cytotoxicity (A549) of the same molecule?
A: 0.117 µg/mL

Q: And the Cytotoxicity (HL60)?
A: 0.086 µg/mL

Q: What does the source list for `O=C(CCCCCNC(=O)CCCCC1SCC2NC(=O)NC21)NCCCCCC(=O)NCc1cccc(CNC(=O)N2CCC(=O)N3C(Cc4ccc(O)cc4)C(=O)N(Cc4cccc5ccccc45)CC23)c1` (centres unmarked) [COMPOUND 2]?
A: Binding of purified CBP (1-111) to COMPOUND 2 beads (CBP (1-111)): specific binding; Major band retained on COMPOUND 2 affinity column (CBP): identified by immunoblotting as the CREB Binding Protein (CBP); Binding of purified p300 (1-111) to COMPOUND 2 beads (p300 (1-111)): not p300 (1-111)

Q: How did the “Effect on number of polyp compared to vehicle control” value (Min mouse; Min mice, about 300 mpk) turn out when `CN1CC(=O)N2C(Cc3ccc(O)cc3)C(=O)N(Cc3cccc4cccnc34)CC2N1C(=O)NCc1ccccc1` (centres unmarked) [COMPOUND 4] was run?
A: reduce the number of polyp

Q: And the “Polyp Number (Mean + S.D.), Colon” value (Min mouse; 300 mpk)?
A: 1.4 ± 0.9

Q: And the “Polyp Number (Mean + S.D.), Small intestine” value (Min mouse; 300 mpk)?
A: 45.2 ± 22.1

Q: What about the “Polyp Number (Mean + S.D.), Total” value (Min mouse; 300 mpk) of the same molecule?
A: 46.8 ± 17.0

Q: And the “% Inhibition vs. VH” value (Min mouse; 300 mpk)?
A: 31%

Q: How did the “Polyp Number (Mean + S.D.), Colon” value (Min mouse; 160 ppm) turn out when `CC1=C(CC(=O)O)c2cc(F)ccc2/C1=C\c1ccc([S+](C)[O-])cc1` (centres unmarked) [Sulindac, reference compound] was run?
A: 0.5 ± 0.5

Q: And the “Polyp Number (Mean + S.D.), Small intestine” value (Min mouse; 160 ppm)?
A: 48.0 ± 20.7

Q: And the “Polyp Number (Mean + S.D.), Total” value (Min mouse; 160 ppm)?
A: 48.5 ± 20.9

Q: And the “% Inhibition vs. VH” value (Min mouse; 160 ppm)?
A: 28%

Q: Which “Effect of nuclear transport inhibitor on COMPOUND 1-induced β-catenin transport” value [1] does the source give for `CCC(=C/[C@H](C)C/C=C/C(C)=C/[C@@H](C)C(=O)[C@@H](C)[C@H](O)[C@@H](C)C/C(C)=C/C(=O)O)/C=C/[C@@H]1OC(=O)C=C[C@@H]1C` [leptomycin B, reference compound] here?
A: eliminated COMPOUND 1-induced cytoplasmic transport of β-catenin

From patent US7531320B2, “Modulation of β-catenin/TCF-activated transcription” (priority 2003, dated 2009)
